The text below walks through data of patent US20230115176A1 (Ra Pharmaceuticals, Inc., priority 2019, published 2023).

Data set [1] concerns the target human C5 complement protein (Homo sapiens, UniProt P01031). Put plainly: Surface plasmon resonance (SPR), immobilized human C5, 37° C. (Example 18, Table 24). Type of data set: binding. Conditions: lowest value obtained where a range of concentrations was analyzed. (In SPR one partner is held on a chip, and binding of the other changes the refractive index at the surface.)

A short description of data set [2]: Kinetic solubility in PBS pH 7.4, HPLC-UV (Example 21, Table 27). In kind it is physicochemical. Particulars: phosphate buffered saline, aqueous buffer, kinetic from dmso stock, 0.5 M PBS, shaken minimum 24 h at approximately 25° C., HPLC-UV 270 nm. An outline of the steps:
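Supernatant measured by HPLC-UV (270 nm) against a DMSO calibration curve of 15.6–500.0 μM after filtration. Triplicate samples were made from 10 mM DMSO stock in 0.05 M phosphate buffer pH 7.4 (5% DMSO) and shaken at least 24 h at about 25 °C.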

In data set [3] the target is T1, Human C5 (Homo sapiens, UniProt P01031).
T1 construct: purchased Complement Technology
Put plainly: Red blood cell (RBC) hemolysis assay, luminescent (Example 24, Table 29). In kind it is cell-based. Particulars: sheep EA cells, […] C5-depleted human serum, 0.5 nM human C5, 1 hour at 37° C., luminescence (Table 29). From the text:
Numbers in parenthesis following the compound number indicate alternate enantiomers (as distinguished by retention time during chromatographical separation).

The structures appear in SMILES notation. Converted amounts (≈) assume the structure as drawn.

Chain of human C5 complement protein (P01031 19-1676): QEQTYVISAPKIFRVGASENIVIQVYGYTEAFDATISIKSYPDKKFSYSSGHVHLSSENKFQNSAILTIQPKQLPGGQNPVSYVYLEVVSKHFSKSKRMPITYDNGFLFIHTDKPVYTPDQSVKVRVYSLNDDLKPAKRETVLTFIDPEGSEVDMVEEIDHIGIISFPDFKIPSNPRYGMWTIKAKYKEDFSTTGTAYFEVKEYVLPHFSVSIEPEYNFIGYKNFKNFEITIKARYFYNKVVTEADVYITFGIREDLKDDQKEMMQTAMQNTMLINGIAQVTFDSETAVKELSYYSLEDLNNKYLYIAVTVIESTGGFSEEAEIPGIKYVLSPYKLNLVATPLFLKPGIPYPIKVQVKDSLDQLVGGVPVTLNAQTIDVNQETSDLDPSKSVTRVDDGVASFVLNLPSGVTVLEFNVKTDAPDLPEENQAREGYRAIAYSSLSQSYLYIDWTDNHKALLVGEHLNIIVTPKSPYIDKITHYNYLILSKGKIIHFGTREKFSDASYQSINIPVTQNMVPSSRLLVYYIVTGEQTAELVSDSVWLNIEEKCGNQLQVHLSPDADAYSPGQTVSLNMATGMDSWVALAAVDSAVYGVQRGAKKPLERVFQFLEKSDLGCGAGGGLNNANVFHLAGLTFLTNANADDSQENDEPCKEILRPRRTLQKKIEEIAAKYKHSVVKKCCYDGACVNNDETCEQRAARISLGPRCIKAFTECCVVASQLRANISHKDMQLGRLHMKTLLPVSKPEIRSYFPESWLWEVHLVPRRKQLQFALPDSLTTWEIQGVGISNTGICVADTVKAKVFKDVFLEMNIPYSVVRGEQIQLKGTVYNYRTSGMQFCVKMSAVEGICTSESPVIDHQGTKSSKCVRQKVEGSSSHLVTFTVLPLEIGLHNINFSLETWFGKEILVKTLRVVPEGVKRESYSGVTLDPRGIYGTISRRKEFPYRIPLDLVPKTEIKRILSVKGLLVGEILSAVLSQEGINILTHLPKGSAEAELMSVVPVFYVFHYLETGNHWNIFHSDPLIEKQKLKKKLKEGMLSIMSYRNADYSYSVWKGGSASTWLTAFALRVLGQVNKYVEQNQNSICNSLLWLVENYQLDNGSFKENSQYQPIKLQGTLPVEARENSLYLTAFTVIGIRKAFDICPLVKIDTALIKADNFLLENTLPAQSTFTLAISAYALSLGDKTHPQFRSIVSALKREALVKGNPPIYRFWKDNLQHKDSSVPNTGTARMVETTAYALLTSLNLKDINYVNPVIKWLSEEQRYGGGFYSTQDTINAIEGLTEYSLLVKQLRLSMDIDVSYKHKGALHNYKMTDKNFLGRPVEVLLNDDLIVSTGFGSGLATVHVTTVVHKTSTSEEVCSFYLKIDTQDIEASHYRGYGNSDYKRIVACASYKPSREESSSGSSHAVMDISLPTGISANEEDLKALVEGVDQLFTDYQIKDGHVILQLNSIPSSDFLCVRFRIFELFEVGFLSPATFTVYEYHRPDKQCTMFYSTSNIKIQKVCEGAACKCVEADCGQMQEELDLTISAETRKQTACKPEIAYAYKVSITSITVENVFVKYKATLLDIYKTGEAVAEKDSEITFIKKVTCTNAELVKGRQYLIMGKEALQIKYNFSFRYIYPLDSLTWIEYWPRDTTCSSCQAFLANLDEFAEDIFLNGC
T1 sequence (P01031 19-1676): as above

By Kd is commonly meant the free concentration of one partner at which half of the binding sites on the other are occupied at equilibrium, for simple one-to-one binding. A low value points to higher affinity. As usually defined, the solubility (kinetic) is solubility judged after dilution from a stock solution rather than from solid. Molecule `COc1cc(CC(=O)N2CCOC(CN(C)C)C2)ccc1CN1CCCN(c2ccc(OC)c(OCCCC3CC3)c2)C1=O` (stereo not shown) [CU0550] came in with a dissociation constant (Kd) in data set [1] of 31 pM. In data set [2], the kinetic solubility is 455 µM (≈ 277 µg/mL).

Consider `CCCCCOc1cc(N2CCCN(Cc3ccnc4c3c(Cl)cn4CC(=O)NC3(C)COC3)C2=O)ccc1OC` [CU0567], for which binding in data set [1] was put at a Kd of 118 pM. The kinetic solubility in data set [2] was less than 10 µM.

`CCCCCOc1cc(N2CCCN(Cc3ccnc4c3c(Cl)cn4CC(=O)N3CC[C@H](OC)C3)C2=O)ccc1OC` [CU0504] came in with a Kd in data set [1] of 254 pM.

Regarding `CCCCCOc1cc(N2CCCN(Cc3cccc4c3c(Br)cn4CC(=O)N(C)C)C2=O)ccc1OC` [CU0543], in data set [1], the affinity, expressed as Kd, was 16 pM. This molecule had a kinetic solubility in data set [2] of 256 µM (≈ 150 µg/mL).

On to `CCCCCOc1cc(N2CCCN(Cc3ccnc4c3c(Cl)cn4CC(=O)NC3COC3)C2=O)ccc1OC` [CU0540], for which binding in data set [1] was put at a Kd of 158 pM. The molecule also returned a solubility (kinetic) in data set [2] of less than 10 µM.

Molecule `CCCCCOc1cc(N2CCCN(Cc3cccc4c3ccn4[C@H]3CCN(C)C3=O)C2=O)ccc1OC` [CU0644] displayed an equilibrium dissociation constant (Kd) in data set [1] of 1110 pM. For the same molecule, the solubility (kinetic) in data set [2] stood at 450 µM (≈ 233 µg/mL).

In data set [1], `COc1cc(CCN2CCCC2)ccc1CN1CCCN(c2ccc(OC)c(OCCCC3CC3)c2)C1=O` [CU0662] returned an equilibrium dissociation constant (Kd) of 1150 pM.

In data set [1], `COc1cc(CNC(=O)c2cocn2)ccc1CN1CCCN(c2ccc(OC)c(OCCCC3CC3)c2)C1=O` [CU0537] gave an equilibrium dissociation constant (Kd) of 39 pM.

In the case of `COc1ccc(N2CCCN(Cc3ccnc4c3c(Cl)cn4CC(=O)N(C)C)C2=O)cc1OCCCC1CC1` [CU0530], in data set [1], the equilibrium dissociation constant (Kd) turned out to be 51 pM.

For the molecule `COc1cc(CCN2CCCC2)ccc1CN1CCCN(c2ccc(OC)c(OCCCCC3CC3)c2)C1=O` [CU0718], in data set [1], binding was put at a Kd of 245 pM.

In data set [1], `CCCCCOc1cc(N2CCCN(Cc3ccnc4c3c(Cl)cn4CC(=O)N3CCO[C@@H](CN(C)C)C3)C2=O)ccc1OC` [CU0519] returned a Kd of 291 pM.

As to `COc1cc(CN)ccc1CN1CCCN(c2ccc(OC)c(OCCCC3CCC3)c2)C1=O` [CU0708], binding in data set [1] was put at a Kd of 18 pM.

As to `COc1cc(CC(=O)N2CCOCC2)ccc1CN1CCCN(c2ccc(OC)c(OCCCC3CC3(F)F)c2)C1=O` (stereo not shown) [CU0601], binding in data set [1] was characterised by a dissociation constant (Kd) of 133 pM.

The molecule `COc1ccc(N2CCCN(Cc3cccc4c3ccn4CC(=O)N(C)C)C2=O)cc1OCCC[C@H]1C[C@@H]1C` (racemic) [CU0681] displayed a Kd in data set [1] of 2200 pM.

In turn, `CCCCCOc1cc(N2CCCN(Cc3cccc4c3ccn4CC3(O)CCN(CC(=O)N(C)C)CC3)C2=O)ccc1OC` [CU0675] displayed a Kd in data set [1] of 860 pM. Further, the kinetic solubility in data set [2] amounted to 430 µM (≈ 267 µg/mL).

As to `COc1cc(CN)ccc1CN1CCCN(c2ccc(OC)c(OCCCCC3CC3)c2)C1=O` [CU0686], in data set [1], binding was put at a Kd of 618 pM.

Consider `CCCCCOc1cc(N2CCCN(Cc3ccnc4c3c(Cl)cn4CC(=O)N(C)O)C2=O)ccc1OC` [CU0514], for which the affinity in data set [1], expressed as Kd, was 93 pM.

As to `COc1ccc(N2CCCN(Cc3ccnc4c3c(Cl)cn4CC(=O)N(C)C)C2=O)cc1OCCC[C@H]1C[C@@H]1C` [CU0610], binding in data set [1] was put at a Kd of 207 pM. In addition, the kinetic solubility in data set [2] came out at 37 µM (≈ 21 µg/mL).

For the molecule `CCCCCOc1cc(N2CCCN(Cc3ccnc4c3c(Cl)cn4CC(=O)N(C)OC)C2=O)ccc1OC` [CU0527], the equilibrium dissociation constant (Kd) in data set [1] was 41 pM.

`COc1ccc(N2CCCN(Cc3ccnc4c3c(Cl)cn4CC(=O)N(C)C)C2=O)cc1OCCCC(F)(F)C(F)(F)F` [CU0502] yielded a dissociation constant Kd in data set [1] of 320 pM.

With `CCCCCOc1cc(N2CCCN(Cc3ccc(CCNC(C)=O)cc3OC)C2=O)ccc1OC` [CU0695], the equilibrium dissociation constant (Kd) in data set [1] stood at 1350 pM.

In data set [1], `CCCCCOc1cc(N2CCCN(Cc3ccc(CCN4CCCC4(C)C)cc3OC)C2=O)ccc1OC` [CU0671] gave a dissociation constant Kd of 275 pM. The molecule also yielded a kinetic solubility in data set [2] of 397 µM (≈ 213 µg/mL).

With `CCCCCOc1cc(N2CCCN(Cc3ccnc4c3c(Cl)cn4CC(=O)N3CCCC3)C2=O)ccc1OC` [CU0541], the Kd in data set [1] is 310 pM. In data set [2], this molecule gave a kinetic solubility of 61 µM (≈ 34.7 µg/mL).

Regarding `CCCCCOc1cc(N2CCCN(Cc3ccnc4c3c(Cl)cn4CC(=O)N(C)CCC#N)C2=O)ccc1OC` [CU0528], in data set [1], binding was characterised by a dissociation constant (Kd) of 57 pM. The kinetic solubility in data set [2] amounted to 50 µM (≈ 29.1 µg/mL).

For the molecule `CCCCCOc1cc(N2CCCN(Cc3ccnc4c3c(Cl)cn4CC(=O)N3CCOC3)C2=O)ccc1OC` [CU0509], the equilibrium dissociation constant (Kd) in data set [1] was 69 pM.

On to `COc1ccc(N2CCCN(Cc3ccnc4c3c(Cl)cn4CC(=O)N(C)C)C2=O)cc1OCCC[C@H]1C[C@H]1C` (racemic) [CU0516], for which the Kd in data set [1] came to 150 pM. In addition, the solubility (kinetic) in data set [2] is 30 µM (≈ 17 µg/mL).

`CCCCCOc1cc(N2CCCN(Cc3ccnc4c3c(Cl)cn4CC(=O)NC3CCOC3)C2=O)ccc1OC` (stereo not shown) [CU0561] had a Kd in data set [1] of 140 pM.

Take `COc1cc(CNC(=O)c2cocn2)ccc1CN1CCCN(c2ccc(OC)c(OCCCCC3CC3)c2)C1=O` [CU0571]: the affinity in data set [1], expressed as Kd, was 481 pM.

Molecule `COc1ccc(N2CCCN(Cc3cccc4c3c(Cl)cn4CC(=O)N(C)C)C2=O)cc1OCCC[C@H]1C[C@H]1C` (racemic) [CU0515] displayed a dissociation constant (Kd) in data set [1] of 320 pM. The molecule also gave a kinetic solubility in data set [2] of less than 10 µM.

Molecule `COc1cc(CC(=O)N(C)C)ccc1CN1CCCN(c2ccc(OC)c(OCCCCC(C)(C)C)c2)C1=O` [CU0638] came in with a dissociation constant Kd in data set [1] of 94 pM. In data set [2], this molecule gave a solubility (kinetic) of 30 µM (≈ 16.2 µg/mL).

In data set [1], `CCCCCOc1cc(N2CCCN(Cc3ccnc4c3c(Cl)cn4CC(=O)NO)C2=O)ccc1OC` [CU0575] returned a Kd of 304 pM.

Regarding `CCCCCOc1cc(N2CCCN(Cc3cccc4c3c(I)cn4CC(=O)N(C)C)C2=O)ccc1OC` [CU0508], the dissociation constant (Kd) in data set [1] is 9 pM.

With `COc1cc(CCN2CCCC2)ccc1CN1CCCN(c2ccc(OC)c(OCCCC3CCC3)c2)C1=O` [CU0699], in data set [1], binding was put at a Kd of 78 pM.

`CCCCCOc1cc(N2CCCN(Cc3ccc(CC(=O)N4CCCC4C)cc3OC)C2=O)ccc1OC` (stereo not shown) [CU0632] gave a Kd in data set [1] of 880 pM.

For `C#CC(C)NC(=O)Cn1cc(Cl)c2c(CN3CCCN(c4ccc(OC)c(OCCCCC)c4)C3=O)ccnc21` (stereo not shown) [CU0572], the affinity in data set [1], expressed as Kd, was 74 pM.

In the case of `CCCCCOc1cc(N2CCCN(Cc3ccc(CCN4[C@H](C)CC[C@@H]4C)cc3OC)C2=O)ccc1OC` [CU0690], binding in data set [1] was put at a Kd of 1690 pM.

In data set [1], `COc1cc(CNC(=O)c2cocn2)ccc1CN1CCCN(c2ccc(OC)c(OCCCC3CCC3)c2)C1=O` [CU0565] showed a dissociation constant Kd of 24 pM.

In data set [1], `COc1cc(CCNC(C)=O)ccc1CN1CCCN(c2ccc(OC)c(OCCCC3CC3)c2)C1=O` [CU0668] displayed an equilibrium dissociation constant (Kd) of 2530 pM.

Molecule `CCCCCOc1cc(N2CCCN(Cc3ccc(CNC(=O)c4ccco4)cc3OC)C2=O)ccc1OC` [CU0597] displayed a Kd in data set [1] of 115 pM.

On to `CCCCCOc1cc(N2CCCN(Cc3ccc(CCNC=O)cc3OC)C2=O)ccc1OC` [CU0704], for which binding in data set [1] was put at a Kd of 2320 pM.

In data set [1], `COc1ccc(N2CCCN(Cc3ccnc4c3ccn4CC(=O)N(C)C)C2=O)cc1OCCC[C@H]1C[C@H]1C` (racemic) [CU0737] gave a Kd of 8100 pM.

As to `COc1cc(CNC(=O)OC(C)(C)C)ccc1CN1CCCN(c2ccc(OC)c(OCCCC3CC3)c2)C1=O` [CU0669], the Kd in data set [1] turned out to be 41 pM.

Consider `CCCCCOc1cc(N2CCCN(Cc3ccnc4c3c(I)cn4CC(=O)N(C)C)C2=O)ccc1OC` [CU0535], for which binding in data set [1] was characterised by a dissociation constant (Kd) of 53 pM.

As for `CCCCCOc1cc(N2CCCN(Cc3ccnc4c3c(Cl)cn4CCO)C2=O)ccc1OC` [CU0576], the Kd in data set [1] was 221 pM.

As for `CCCCCOc1cc(N2CCCN(Cc3ccc(CNC4CCN(C)C4=O)cc3OC)C2=O)ccc1OC` (stereo not shown) [CU0626], binding in data set [1] was put at a Kd of 1040 pM.

In data set [1], `COc1cc(CN)ccc1CN1CCCN(c2ccc(OC)c(OCCCC3CC3)c2)C1=O` [CU0657] returned a dissociation constant Kd of 1320 pM.

A word on the IC50: it is the midpoint of a concentration-inhibition curve. Read a low IC50 as greater potency. With `CCCCCOc1cc(N2CC[C@H](C)N(Cc3cccc4c3ccn4CC(=O)N3CCO[C@@H](COC)C3)C2=O)ccc1OC` [SC0009], in data set [3], it took 18500 pM to reach half-maximal inhibition (IC50). Besides, in data set [2], the solubility (kinetic) came to 167 µM (≈ 101 µg/mL).
